# How the values were obtained:
# [1] = molecular target: T1, TBK1 (Homo sapiens, UniProt Q9UHD2); test: TBK biochemical assay; conditions: 10 point 1:4 dose response, 30 uM top concentration, 90 min at 25° C., LabChip EZ Reader II; read-out: TBK1_IC50
# T1 sequence (Q9UHD2 1-729): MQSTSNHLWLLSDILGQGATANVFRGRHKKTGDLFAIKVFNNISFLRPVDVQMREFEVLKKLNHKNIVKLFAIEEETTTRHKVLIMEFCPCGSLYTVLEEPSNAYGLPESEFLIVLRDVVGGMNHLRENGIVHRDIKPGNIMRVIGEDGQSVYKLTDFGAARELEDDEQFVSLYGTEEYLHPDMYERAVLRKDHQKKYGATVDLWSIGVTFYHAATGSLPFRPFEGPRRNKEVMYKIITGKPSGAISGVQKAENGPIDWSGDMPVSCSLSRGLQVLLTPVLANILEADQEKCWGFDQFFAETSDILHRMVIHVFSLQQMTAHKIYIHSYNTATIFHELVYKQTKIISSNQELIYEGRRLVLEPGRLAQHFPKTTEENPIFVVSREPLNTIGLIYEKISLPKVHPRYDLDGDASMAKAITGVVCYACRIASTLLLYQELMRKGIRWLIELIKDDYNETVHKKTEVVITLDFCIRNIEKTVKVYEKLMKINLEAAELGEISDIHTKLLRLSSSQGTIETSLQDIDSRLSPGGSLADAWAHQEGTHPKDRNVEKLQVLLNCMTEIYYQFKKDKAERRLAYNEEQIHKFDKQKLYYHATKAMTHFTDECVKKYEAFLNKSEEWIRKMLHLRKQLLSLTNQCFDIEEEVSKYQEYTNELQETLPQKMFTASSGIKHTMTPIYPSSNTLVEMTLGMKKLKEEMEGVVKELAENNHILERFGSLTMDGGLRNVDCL
# Outline: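 Substrate and product were separated and quantified by microfluidic mobility-shift read (LabChip). 10 uM staurosporine served as the full-inhibition control, and the reference compound was tested from 1 uM final.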
# [2] = molecular target: T2, IKKε (Homo sapiens, UniProt Q14164); test: IKKε biochemical assay; conditions: 10 point 1:4 dose response, 30 uM top concentration, 90 min at 25° C., LabChip EZ Reader II; read-out: IKKε_IC50
# T2 sequence (Q14164 1-716): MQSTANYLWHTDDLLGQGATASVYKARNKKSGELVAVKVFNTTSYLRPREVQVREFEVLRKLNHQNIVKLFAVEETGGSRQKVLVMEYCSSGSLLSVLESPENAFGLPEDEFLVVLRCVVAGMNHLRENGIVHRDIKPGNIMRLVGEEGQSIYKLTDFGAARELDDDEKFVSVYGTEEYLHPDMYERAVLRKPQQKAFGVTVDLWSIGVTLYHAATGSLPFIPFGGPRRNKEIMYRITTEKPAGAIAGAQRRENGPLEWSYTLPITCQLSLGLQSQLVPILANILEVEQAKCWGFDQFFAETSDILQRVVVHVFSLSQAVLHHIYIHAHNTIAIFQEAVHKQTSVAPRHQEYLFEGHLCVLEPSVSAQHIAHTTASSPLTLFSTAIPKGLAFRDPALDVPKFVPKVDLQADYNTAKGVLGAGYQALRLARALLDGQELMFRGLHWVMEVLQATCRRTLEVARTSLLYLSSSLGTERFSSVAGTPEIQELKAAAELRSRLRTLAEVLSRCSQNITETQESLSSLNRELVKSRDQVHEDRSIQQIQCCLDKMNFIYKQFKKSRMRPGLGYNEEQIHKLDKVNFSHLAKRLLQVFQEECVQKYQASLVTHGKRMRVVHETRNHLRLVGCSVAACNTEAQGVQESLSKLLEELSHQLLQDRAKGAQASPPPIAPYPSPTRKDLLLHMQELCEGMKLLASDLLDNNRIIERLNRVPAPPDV
# Outline: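 Compounds in 1% DMSO final were incubated with IKKε enzyme and substrate at 25° C. for 90 min, then stopped. Substrate and product peaks were resolved by LabChip EZ Reader II mobility-shift read-out. Staurosporine at 10 uM final served as the full-inhibition control.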
IC50 [1],IC50 [2],Structure (SMILES)
100 to 1000 nM,< 100 nM,"COc1cc(Nc2nccc(-c3ccc(O[C@H]4CCN(C(=O)[C@@H](C)O)CC4(F)F)c(C#N)c3)n2)ccn1 [Example 230, 2-((S)-3,3-difluoro-1-((R)-2-hydroxypropanoyl)piperidin-4-yloxy)-5-(2-(2-methoxypyridin-4-ylamino)pyrimidin-4-yl)benzonitrile]"
< 100 nM,< 100 nM,"COc1cc(Nc2nccc(-c3ccc(O[C@@H]4CCN(C(=O)[C@@H](C)O)CC4(F)F)c(C#N)c3)n2)ccn1 [Example 231, 2-((R)-3,3-difluoro-1-((R)-2-hydroxypropanoyl)piperidin-4-yloxy)-5-(2-(2-methoxypyridin-4-ylamino)pyrimidin-4-yl)benzonitrile]"
< 100 nM,< 100 nM,"COc1nc(Nc2nccc(-c3ccc(OC4CCN(C(=O)CO)CC4(F)F)c(C#N)c3)n2)ccc1C1CCN(C)CC1 (stereo not drawn) [Example 234, 2-[[3,3-difluoro-1-(2-hydroxyacetyl)piperidin-4-yl]oxy]-5-(2-[[6-methoxy-5-(l-methylpiperidin-4-yl)pyridin-2-yl]amino]pyrimidin-4-yl)benzonitrile]"
< 100 nM,< 100 nM,"COc1nc(Nc2nccc(-c3ccc(OC4CCN(C(=O)C(O)C5CC5)CC4(F)F)c(C#N)c3)n2)ccc1C1CCN(C2COC2)CC1 (stereo not drawn) [Example 239, 2-[1-(2-Cyclopropyl-2-hydroxy-acetyl)-3,3-difluoro-piperidin-4-yloxy]-5-[2-(2-methoxy-1′-oxetan-3-yl-1′,2′,3′,4′,5′,6′-hexahydro-[3,4′]bipyridinyl-6-ylamino)-pyrimidin-4-yl]-benzonitrile]"
< 100 nM,< 100 nM,"COc1cccc(Nc2nccc(-c3ccc(OC4CCN(C(=O)[C@@H](O)CO)CC4(F)F)c(C#N)c3)n2)n1 (stereo partly drawn) [Example 242, 2-[1-((S)-2,3-Dihydroxy-propionyl)-3,3-difluoro-piperidin-4-yloxy]-5-[2-(6-methoxy-pyridin-2-ylamino)-pyrimidin-4-yl]-benzonitrile]"
< 100 nM,< 100 nM,"N#Cc1cc(-c2ccnc(Nc3ccccn3)n2)ccc1OC1CCN(C(=O)[C@@H](O)CO)CC1(F)F (stereo partly drawn) [Example 243, 2-[1-((S)-2,3-Dihydroxy-propionyl)-3,3-difluoro-piperidin-4-yloxy]-5-[2-(pyridin-2-ylamino)-pyrimidin-4-yl]-benzonitrile]"
< 100 nM,< 100 nM,"COc1nc(Nc2nccc(-c3ccc(OC4CCN(C(=O)[C@H](C)OC)CC4(F)F)c(C#N)c3)n2)ccc1N1CCN(C2COC2)CC1 (stereo partly drawn) [Example 246, 2-[3,3-Difluoro-1-((S)-2-methoxy-propionyl)-piperidin-4-yloxy]-5-{2-[6-methoxy-5-(4-oxetan-3-yl-piperazin-1-yl)-pyridin-2-ylamino]-pyrimidin-4-yl}-benzonitrile]"

# The remaining lines, values behind:
Structure (SMILES),IC50 [1],IC50 [2]
"CCOc1cc(Nc2nccc(-c3ccc(OC4CCN(C(=O)[C@H](C)O)CC4(F)F)c(C#N)c3)n2)ccc1N1CCN(C2COC2)CC1 (stereo partly drawn) [Example 229, 2-([3,3-difluoro-1-[(2S)-2-hydroxypropanoyl]piperidin-4-yl]oxy)-5-[2-([3-ethoxy-4-[4-(oxetan-3-yl)piperazin-1-yl]phenyl]amino)pyrimidin-4-yl]benzonitrile]",< 100 nM,< 100 nM
"COc1nccc(Nc2nccc(-c3ccc(OC4CCNCC4(F)F)c(C#N)c3)n2)n1 (stereo not drawn) [Example 232, 2-(3,3-Difluoro-piperidin-4-yloxy)-5-[2-(2-methoxy-pyrimidin-4-ylamino)-pyrimidin-4-yl]-benzonitrile]",100 to 1000 nM,100 to 1000 nM
COc1nccc(Nc2nccc(-c3ccc(OC4CCN(C(=O)[C@H](C)O)CC4(F)F)c(C#N)c3)n2)n1 (stereo partly drawn) [Example 233],< 100 nM,< 100 nM
"COc1nc(Nc2nccc(-c3ccc(O[C@@H]4CCNC[C@@H]4F)c(C#N)c3)n2)ccc1C1CCN(C2COC2)CC1 [Example 235, 2-((3S,4R)-3-Fluoro-piperidin-4-yloxy)-5-[2-(2-methoxy-1′-oxetan-3-yl-1′,2′,3′,4′,5′,6′-hexahydro-[3,4′]bipyridinyl-6-ylamino)-pyrimidin-4-yl]-benzonitrile]",100 to 1000 nM,100 to 1000 nM
"COc1nc(Nc2nccc(-c3ccc(OC4CCN(C(=O)[C@@H](O)C(C)C)CC4(F)F)c(C#N)c3)n2)ccc1C1CCN(C2COC2)CC1 (stereo partly drawn) [Example 236, 2-[3,3-Difluoro-1-((S)-2-hydroxy-3-methyl-butyryl)-piperidin-4-yloxy]-5-[2-(2-methoxy-1′-oxetan-3-yl-1′,2′,3′,4′,5′,6′-hexahydro-[3,4′]bipyridinyl-6-ylamino)-pyrimidin-4-yl]-benzonitrile]",< 100 nM,< 100 nM
"COc1nc(Nc2nccc(-c3ccc(OC4CCN(C(=O)C5(O)CC5)CC4(F)F)c(C#N)c3)n2)ccc1C1CCN(C2COC2)CC1 (stereo not drawn) [Example 237, 2-[3,3-Difluoro-1-(1-hydroxy-cyclopropanecarbonyl)-piperidin-4-yloxy]-5-[2-(2-methoxy-1′-oxetan-3-yl-1′,2′,3′,4′,5′,6′-hexahydro-[3,4′]bipyridinyl-6-ylamino)-pyrimidin-4-yl]-benzonitrile]",< 100 nM,< 100 nM
"COc1nc(Nc2nccc(-c3ccc(OC4CCN(C(=O)[C@H](O)C(C)C)CC4(F)F)c(C#N)c3)n2)ccc1C1CCN(C2COC2)CC1 (stereo partly drawn) [Example 238, 2-[3,3-Difluoro-1-((R)-2-hydroxy-3-methyl-butyryl)-piperidin-4-yloxy]-5-[2-(2-methoxy-1′-oxetan-3-yl-1′,2′,3′,4′,5′,6′-hexahydro-[3,4′]bipyridinyl-6-ylamino)-pyrimidin-4-yl]-benzonitrile]",100 to 1000 nM,100 to 1000 nM
"COc1cccc(Nc2nccc(-c3ccc(O[C@H]4CCN(C(=O)[C@H](C)O)CC4(F)F)c(C#N)c3)n2)n1 [Example 240, 2-[[(4S)-3,3-difluoro-1-[(2S)-2-hydroxypropanoyl]piperidin-4-yl]oxy]-5-[2-[(6-methoxypyridin-2-yl)amino]pyrimidin-4-yl]benzonitrile]",100 to 1000 nM,100 to 1000 nM
"COc1cccc(Nc2nccc(-c3ccc(O[C@@H]4CCN(C(=O)[C@H](C)O)CC4(F)F)c(C#N)c3)n2)n1 [Example 241, 2-[[(4R)-3,3-difluoro-1-[(2S)-2-hydroxypropanoyl]piperidin-4-yl]oxy]-5-[2-[(6-methoxypyridin-2-yl)amino]pyrimidin-4-yl]benzonitrile]",< 100 nM,< 100 nM
"COc1ccc(Nc2nccc(-c3ccc(OC4CCN(C(=O)[C@@H](O)CO)CC4(F)F)c(C#N)c3)n2)nc1OC (stereo partly drawn) [Example 244, 2-[1-((S)-2,3-Dihydroxy-propionyl)-3,3-difluoro-piperidin-4-yloxy]-5-[2-(5,6-dimethoxy-pyridin-2-ylamino)-pyrimidin-4-yl]-benzonitrile]",< 100 nM,< 100 nM
"C[C@H](O)C(=O)N1CCC(Oc2ccc(-c3ccnc(Nc4ccc(N5CCN(C6COC6)CC5)cn4)n3)cc2C#N)C(F)(F)C1 (stereo partly drawn) [Example 245, 2-([33-difluoro-1-[(2S)-2-hydroxypropanoyl]piperidin-4-yl]oxy)-5-[2-([5-[4-(oxetan-3-yl)piperazin-1-yl]pyridin-2-yl]amino)pyrimidin-4-yl]benzonitrile]",< 100 nM,< 100 nM
